What was measured:
[1] = system: TrkB-expressing neuroblastoma cells (SH-SY5Y cells stably transfected with TrkB); test: Sulphorhodamine B (SRB) assay, survival and growth of TrkB-expressing neuroblastoma cells; format: cell-based; details: single agent; 1-100 nM; 100 ng per mL BDNF; 24, 48, 72 hours
SY5Y-TrkB cells = test: SY5Y-TrkB xenograft study: tumor growth and event-free survival; format: in vivo, athymic nu/nu mice; details: oral
Procedure: N-[5-(3,5-difluorobenzyl)-1H-indazol-3-yl]-4-(4-methyl-piperazin-1-yl)-2-(tetrahydro-2H-pyran-4-ylamino) benzamide_was dissolved in DMSO to obtain stocks for in vitro studies. For in vivo xenograft experiments, N-[5-(3,5-difluorobenzyl)-1H-indazol-3-yl]-4-(4-methyl-piperazin-1-yl)-2-(tetrahydro-2H-pyran-4-ylamino) benzamide was reconstituted in 0.5% methyl cellulose (Sigma-Aldrich, viscosity 400 cP, 2% in H2O) containing 1% Tween 80 at a final dosing volume of 10 mL per kg. Prior to dosing, the formulation was stirred at room temperature for 30 min, and then sonicated in a water bath sonicator for 20 min. The formulation was made fresh every week. For the in vivo study, the animals were dosed with the formulation of N-[5-(3,5-difluorobenzyl)-1H-indazol-3-yl]-4-(4-methyl-piperazin-1-yl)-2-(tetrahydro-2H-pyran-4-ylamino) benzamide twice a day (BID) for 7 days per week at a dose of 60 mg per kg.
Xenograft studies were performed using SH-SY5Y cells stably transfected with TrkB. Cells were grown in RPMI-1640 medium containing 10% fetal bovine serum and maintained in 150 cm^3 Costar culture flasks in a humidified atmosphere of 95% air and 5% CO2. Cells were harvested using 0.2% tetra sodium EDTA in phosphate buffered saline (PBS).
Six-week-old athymic nu/nu mice were obtained from Jackson Laboratories. Mice were maintained at five per cage under humidity- and temperature-controlled conditions in a light/dark cycle that was set at 12-hour intervals.
For in vivo xenograft studies, six-week-old athymic nu/nu mice were injected subcutaneously in the flank with 1×10^7 SY5Y-TrkB cells in 0.1 ml of Matrigel (BD Bioscience, Palo Alto, Calif.). Tumors were measured 2 times per week in 3 dimensions, and the volume calculated as follows: [(0.523×L×W×W)/1000]. Body weights of the mice were obtained every week and the dose of the tested compounds were adjusted accordingly. […]

CN1CCN(c2ccc(C(=O)Nc3n[nH]c4ccc(Cc5cc(F)cc(F)c5)cc34)c(NC3CCOCC3)c2)CC1 [N-[5-(3,5-difluorobenzyl)-1H-indazol-3-yl]-4-(4-methyl-piperazin-1-yl)-2-(tetrahydro-2H-pyran-4-ylamino) benzamide]
inhibition of growth of TrkB-expressing NB cells in vitro [1]: significantly inhibited growth | Estimated slope from linear mixed effects model (increase of log tumor volume) (SY5Y-TrkB cells; Control vs Group 2 analysis (FIG. 3), Group 2: alone, 60 mg per kg, twice per day, 7 times per week): 0.0973 per day in the log of tumor volume | Estimated slope of trace in FIG. 1, linear mixed effects model (SY5Y-TrkB cells; Group 2: alone, 60 mg per kg, twice per day, 7 times per week): 0.0696 per day in the log of tumor volume | tumor growth inhibition compared to control animals (SY5Y-TrkB cells; single agent therapy, 60 mg per kg BID): significant tumor growth inhibition

From US10357490B2, “Combinations for the treatment of neuroblastoma” (IGNYTA, INC., priority 2014, dated 2019)
